The record followed here is BindingDB's records for patent US20230348456 (Repare Therapeutics, 2023).

Broadly, the IC50 is the concentration at which inhibition is half-maximal. Read a high IC50 as weaker potency.

The test addresses T1, Membrane-associated tyrosine- and threonine-specific cdc2-inhibitory kinase (Homo sapiens, UniProt Q99640).
T1 sequence (Q99640 whole entry): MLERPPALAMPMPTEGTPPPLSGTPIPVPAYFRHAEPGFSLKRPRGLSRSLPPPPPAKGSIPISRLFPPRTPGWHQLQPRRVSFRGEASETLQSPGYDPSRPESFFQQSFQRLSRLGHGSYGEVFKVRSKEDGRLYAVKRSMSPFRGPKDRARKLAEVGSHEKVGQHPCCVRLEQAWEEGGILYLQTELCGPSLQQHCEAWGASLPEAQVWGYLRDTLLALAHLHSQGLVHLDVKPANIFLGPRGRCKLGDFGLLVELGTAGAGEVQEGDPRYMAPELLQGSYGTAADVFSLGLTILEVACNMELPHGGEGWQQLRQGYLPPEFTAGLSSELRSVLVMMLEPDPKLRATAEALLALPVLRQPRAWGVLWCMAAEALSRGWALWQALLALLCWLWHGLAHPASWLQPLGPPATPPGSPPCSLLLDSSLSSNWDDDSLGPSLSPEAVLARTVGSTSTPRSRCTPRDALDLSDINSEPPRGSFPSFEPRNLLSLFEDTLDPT
Briefly: Enzymatic Assay. As for the experimental part:
Detection of Myt1 kinase activity utilized a recombinant human Myt1 kinase assay measuring the hydrolysis of ATP using a commercially available ADP-Glo Assay (ADP-Glo Kinase Assay from Promega, 10 000 assays, #V9102). Briefly, 5 μL recombinant human Myt1 (full length PKMYT1 recombinant human protein expressed in insect cells from Thermo Fisher #A33387; 80% purity) was prepared in reaction buffer (70 mM HEPES, 3 mM MgCl2, 3 mM MnCl2, 50 μg/ml PEG 20000, 3 μM Na-orthovanadate, 1.2 mM DTT) and added to 384 well white polystyrene, flat bottom well, non-treated, microplate (Corning #3572). After this, 5 μL of compounds (diluted in reaction buffer to 0.5% DMSO) was added to the microplate and the plate was spun briefly and incubated at 22 C. for 15 minutes. Ultra-Pure Adenosine Triphosphate (ATP) solution (ADP-Glo kit from Promega) was diluted in reaction buffer and 5 μL was added to the microplate, spun down briefly and incubated for 60 minutes at 30 C. The final Myt1 enzyme concentration was 18 nM and the final ATP concentration was 10 μM. After the 60-minute incubation, 15 μL of ADP-Glo reagent was added and the plate was spun briefly and sealed and incubated in the dark for 40 minutes at 22 C. Following this, 30 μL of kinase detection reagent was added per well and the plate was spun briefly, sealed and incubated for 45-60 minutes at 22 C. in the dark. Luminescence was read using the Envision (250 ms integration). T
For the molecule `Nc1c(-c2cccc3[nH]ncc23)cc(-n2cccn2)c2nc(-c3ccncc3)[nH]c(=O)c12` [US20230348456, Compound 77], it took 4 nM to reach half-maximal inhibition (IC50).

`Nc1c(-c2cccc3[nH]ncc23)cc(Br)c2nc(-c3ccc(N4CCC5(CC4)COC5)nc3)[nH]c(=O)c12` [US20230348456, Compound 34] displayed an IC50 of 10 nM.

For `Nc1c(-c2cccc3[nH]ncc23)cc(-c2cccc(OC3CCOCC3)c2)c2nc(-c3ccncc3)[nH]c(=O)c12` [US20230348456, Compound 65], it took 4 nM to reach half-maximal inhibition (IC50).

The molecule `Nc1c(-c2cccc3[nH]ncc23)cc(-c2nccs2)c2nc(-c3ccc(CN4CCOCC4)cc3)[nH]c(=O)c12` [US20230348456, Compound 39] gave an IC50 of 8 nM.

With `Nc1ccc(-c2nc3c(Br)cc(-c4cccc5[nH]ncc45)c(N)c3c(=O)[nH]2)cn1` [US20230348456, Compound 7], half-maximal inhibition (IC50) required 4 nM.
